Test results: patent US20230391752A1, “PYRROLIDINE-3-CARBOXAMIDE DERIVATIVES AND RELATED USES” (Chulalongkorn University, priority 2020, published 2023)

Legend:
HBV capsid = target: T1, HBV capsid (Hepatitis B virus genotype D subtype ayw, UniProt P03146); assay: Mechanistic study in stably HBV expressed HepG2.2.15 cells (capsid, encapsidated DNA/RNA, core protein blots); type: cell-based; settings: HepG2.2.15, 6 days; for HBV capsid (formation of DNA- and RNA-devoid capsid): various concentrations; for Intracellular HBV core protein level: western blot
T1 construct: expressed in transfected cells; host or cells: HepG2.2.15
Method: The stably HBV expressed HepG2.2.15 cells were treated with test compounds, at various concentrations in culture medium, at 37° C. for three days. After that the medium was removed and fresh medium containing the compound was added to the cells for another 3 days. After 6 days of treatment, cellular lysates from the treated cells were assessed by non-denatured agarose gel electrophoresis. HBV capsid was detected by western blot with monoclonal anti-HBV core. Encapsidated HBV DNA and RNA were detected by southern blot and northern blot. Intracellular HBV core protein was assessed by western Blot with a monoclonal mouse anti-HBV core. β-actin protein assessed by western blot was used as an internal control.

[1] = target: T2, HBV construct U95551 (wild-type) (Hepatitis B virus genotype D subtype ayw, UniProt P03146); type: cell-based; settings: relative to the wild type construct
T2 construct: expressed in transfected cells; host or cells: HepG2

[2] = target: HBV core protein variant F23Y (Hepatitis B virus genotype D subtype ayw, UniProt P03146, F23Y); assay: Anti-HBV activity in core protein variants: F23Y; type: cell-based; settings: relative to the wild type construct
[3] = target: HBV core protein variant D29G (Hepatitis B virus genotype D subtype ayw, UniProt P03146, D29G); assay: Anti-HBV activity in core protein variants: D29G; type: cell-based; settings: relative to the wild type construct
[4] = target: HBV core protein variant T33N (Hepatitis B virus genotype D subtype ayw, UniProt P03146, T33N); assay: Anti-HBV activity in core protein variants: T33N; type: cell-based; settings: relative to the wild type construct
[5] = target: HBV core protein variant I105T (Hepatitis B virus genotype D subtype ayw, UniProt P03146, I105T); assay: Anti-HBV activity in core protein variants: I105T; type: cell-based; settings: relative to the wild type construct
[6] = target: HBV core protein variant T109I (Hepatitis B virus genotype D subtype ayw, UniProt P03146, T109I); assay: Anti-HBV activity in core protein variants: T109I; type: cell-based; settings: relative to the wild type construct
[7] = target: HBV core protein variant T109M (Hepatitis B virus genotype D subtype ayw, UniProt P03146, T109M); assay: Anti-HBV activity in core protein variants: T109M; type: cell-based; settings: relative to the wild type construct
[8] = target: HBV core protein variant Y118F (Hepatitis B virus genotype D subtype ayw, UniProt P03146, Y118F); assay: Anti-HBV activity in core protein variants: Y118F; type: cell-based; settings: relative to the wild type construct
HBV [9] = assay: In vitro anti-HBV activity in HepG2.2.15 cell line (intracellular HBV DNA by qPCR at 1 μM); type: cell-based; settings: Hepatitis B virus, 144 h; HepG2.2.15 cells, 1 μM compound, 6 days, intracellular HBV DNA as percentage compared to vehicle control (0.5% DMSO)
In short: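 Intracellular HBV DNA was quantified by qPCR and given as percent of vehicle (0.5% DMSO), grouped into letter ranges. Stably transfected HepG2.2.15 cells had 6 days of exposure to 1 μM compound, with medium and compound renewed after day 3.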

HBV [10] = assay: Effect on intrahepatic HBV DNA levels in HepG2.2.15 cells (EC50); type: cell-based; settings: Hepatitis B virus, 144 h, 6 days, intrahepatic HBV DNA by qPCR, read-out: Anti-HBV DNA (EC50)
In short: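 Over 6 days at 37° C., HepG2.2.15 cells were treated with compound in 10% FCS medium, refreshed with compound after day 3. Intracellular HBV DNA was quantified by qPCR from cell lysates, and EC50 fitted by nonlinear regression relative to no-drug controls.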

[11] = Cytotoxicity (MTT) in HepG2.2.15 cells; type: cell-based; settings: human, 6 days treatment, read-out: HepG2.1.15 cytotoxicity (CC50)
In short: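 Adhered HepG2.2.15 cells were exposed to compounds for 6 days, then given […] MTT in serum-free medium for 2 h. Formazan dissolved in DMSO was read at 570 nm. CC50 (50% cell death) came from four-parameter fitting of viability versus concentration.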

HBV core protein (Cp149) [12] = target: T3, HBV core protein (Cp149) (Hepatitis B virus genotype D subtype ayw, UniProt P03146); assay: HBV capsid assembly by size exclusion chromatography (SEC); type: biochemical; settings: 50 μM compound, 15 μM Cp149, 16 hours at 21° C.
T3 construct: HBV core C-terminally truncated protein (HBV Cp149); made in house

HBV core protein (Cp149) [13] = target: T3, HBV core protein (Cp149); assay: HBV capsid assembly by electron microscopy (EM); type: biochemical; settings: 50 μM compound, 15 μM Cp149, negative stain
HBV genotype D = assay: HBV-infected primary human hepatocytes (PHH); type: cell-based, Hepatitis B virus; settings: for HBeAg in PHH / HBsAg in PHH: treatment scheme 1; for HBV DNA in PHH: treatment scheme 1 (compound added simultaneously with infection media, 6 days); for cccDNA establishment in PHH: treatment scheme 1, southern blot
Method: Primary human hepatocytes (PHH) were infected with HBV genotype D produced from HepG2.2.15 cell line on day 1 after plating. Subsequently, the PHH were treated with various concentrations of compounds into 2 different treatment schemes. For treatment scheme 1, the compounds were added into PHH simultaneously with infection media, and incubated for additional 6 days. For treatment scheme 2, the compounds were added into PHH at day 3 after infection, and further incubated for 6 days. After treatment, the cell culture supernatants were collected for the determinations of HBV DNA by qPCR, pgRNA by RT-PCR, HBsAg and HBeAg by ELISA, and cell viability by CCK-8. The cells were harvested for detection of intracellular cccDNA by southern blot.

HBV genotypes A to D = type: cell-based; settings: transfected HepG2 cells
[14] = Pharmacokinetic study in rats; type: in vivo, male Sprague-Dawley rats
Method: (§1) Test compounds were administered to male Sprague-Dawley rats and male Beagle dogs by oral (PO) and intravenous (TV) administration. For TV dosing, test compounds were dosed at 0.2 to 0.5 mg/kg using a formulation of 10% dimethyl sulfoxide in 20% hydroxypropyl beta-cyclodextrin solution via IV bolus. For PO dosing, test compounds were dosed at 0.3 to 2.0 mg/kg using a formulation of 40% polyethylene glycol 400 in water via oral gavage. Blood samples were collected at pre-dose and various time points up to 24 hours post-dose, and centrifuged to obtain plasma samples. The plasma concentrations of test compounds were quantified by LC-MS/MS methods. The relevant pharmacokinetic parameters (Table D) were calculated via non-compartmental analysis using WinNonlin (Phoenix™, version 8.3).

[15] = Pharmacokinetic study in dogs; type: in vivo, male Beagle dogs
Method: as §1

| SMILES | HBV capsid (formation of DNA- and RNA-devoid capsid) (HBV capsid) | Intracellular HBV core protein level (HBV capsid) | Fold change in EC50, U95551 (wild-type) [1] | Fold change in EC50, F23Y [2] | Fold change in EC50, D29G [3] | Fold change in EC50, T33N [4] | Fold change in EC50, I105T [5] | Fold change in EC50, T109I [6] | Fold change in EC50, T109M [7] | Fold change in EC50, Y118F [8] | activity at 1 µM (HBV [9]) [%] | EC50 (HBV [10]) [µM] | CC50 at 6 days [11] [µM] | Size of induced capsids based on SEC retention times (HBV core protein (Cp149) [12]) | HBeAg in PHH (HBV genotype D) | HBsAg in PHH (HBV genotype D) | HBV DNA in PHH (HBV genotype D) | cccDNA establishment in PHH (HBV genotype D) | further results |
| --- | --- | --- | --- | --- | --- | --- | --- | --- | --- | --- | --- | --- | --- | --- | --- | --- | --- | --- | --- |
| CCOC(=O)C1=C(CN2CCOCC2)NC(c2nccs2)=NC1c1ccc(F)cc1Br (stereo not shown) [GLS4, reference compound] | induced formation of DNA- and RNA-devoid capsid | reduced intracellular HBV core protein level in the concentration-dependent manner | B (B=1-5) | C (C=5-15) | B (B=1-5) | D (D>15) | B (B=1-5) | C (C=5-15) | B (B=1-5) | B (B=1-5) | – | – | – | – | – | – | – | – | – |
| C[C@H]1[C@@H](C(=O)Nc2cc(F)c(F)c(F)c2)CCN1C(=O)c1[nH]c2ccccc2c1Cl [Example 42, (2S,3S)-1-(3-chloro-1H-indole-2-carbonyl)-2-methyl-N-(3,4,5-trifluorophenyl)pyrrolidine-3-carboxamide] | dose-dependently accelerated formation of DNA- and RNA-devoid capsid | had no effect on intracellular HBV core protein level | – | – | – | – | – | – | – | – | < 45 | 0.05 to 0.3 | > 25 | capsid retention times between BAY 41-4109 and NVR 3-778 | inhibited | inhibited | inhibited | inhibited | Capsid morphology by EM (HBV core protein (Cp149) [13]): resulted in larger but normal shape spheres |
| Cc1cc(NC(=O)[C@H]2CCN(C(=O)c3ccc(-c4c(C)ncnc4C)[nH]3)[C@H]2C)ccc1F [Example 149, (2S,3S)-1-(5-(4,6-dimethylpyrimidin-5-yl)-1H-pyrrole-2-carbonyl)-N-(4-fluoro-3-methylphenyl)-2-methylpyrrolidine-3-carboxamide] | – | – | B (B=1-5) | C (C=5-15) | B (B=1-5) | D (D>15) | B (B=1-5) | A (A<1) | A (A<1) | A (A<1) | < 45 | < 0.05 | 10 to 25 | induced capsids similar in size to NVR 3-778 | inhibited | inhibited | inhibited | inhibited | Anti-HBV activity across HBV genotypes (HBV genotypes A to D): effective across all HBV genotypes tested (A to D); CL (mL/min/kg) Rat ([14]; IV 0.2 to 0.5 mg/kg): 20.0 mL/min/kg; F (%) Rat ([14]; PO 0.3 to 2.0 mg/kg): 44%; Vd ([14]; male, Sprague-Dawley, plasma, rat, IV 0.2 to 0.5 mg/kg, read-out: Vd,ss (L/kg) Rat): 2.92 L/kg; half-life ([14]; male, Sprague-Dawley, rat, plasma, read-out: t1/2 (h) Rat (converted)): 6.5 h; F (%) Dog ([15]; PO 0.3 to 2.0 mg/kg): 63%; half-life ([15]; male, Beagle, dog, plasma, read-out: t1/2 (h) Dog (converted)): 4.5 h; clearance ([15]; male, Beagle, plasma, dog, IV 0.2 to 0.5 mg/kg, read-out: CL (mL/min/kg) Dog): 5.1 mL/min/kg; Vd ([15]; male, Beagle, plasma, dog, IV 0.2 to 0.5 mg/kg, read-out: Vd,ss (L/kg) Dog): 1.3 L/kg |
